{"source": "patent EP4608400B1", "about": "“COMPOUND FOR TREATMENT OF PAIN” (Initiator Pharma A/S, priority 2022, dated 2024)", "key": {"Dopamine (DA)": {"system": "Dopamine (DA)", "test": "Microdialysis studies in mice brain (cortex, striatum)", "format": "in vivo", "conditions": "10 mg/kg s.c., n=1-2", "description": "In a small subset of mice, microdialysis was performed with a probe placed in either the striatum or cortex by use of stereotaxis."}, "[1]": {"target": "T1, 5-hydroxytryptamine transporter (5-HTT or SERT) (Homo sapiens, UniProt P31645)", "T1 construct": "expressed in transfected cells", "T1 sequence (P31645 whole entry)": "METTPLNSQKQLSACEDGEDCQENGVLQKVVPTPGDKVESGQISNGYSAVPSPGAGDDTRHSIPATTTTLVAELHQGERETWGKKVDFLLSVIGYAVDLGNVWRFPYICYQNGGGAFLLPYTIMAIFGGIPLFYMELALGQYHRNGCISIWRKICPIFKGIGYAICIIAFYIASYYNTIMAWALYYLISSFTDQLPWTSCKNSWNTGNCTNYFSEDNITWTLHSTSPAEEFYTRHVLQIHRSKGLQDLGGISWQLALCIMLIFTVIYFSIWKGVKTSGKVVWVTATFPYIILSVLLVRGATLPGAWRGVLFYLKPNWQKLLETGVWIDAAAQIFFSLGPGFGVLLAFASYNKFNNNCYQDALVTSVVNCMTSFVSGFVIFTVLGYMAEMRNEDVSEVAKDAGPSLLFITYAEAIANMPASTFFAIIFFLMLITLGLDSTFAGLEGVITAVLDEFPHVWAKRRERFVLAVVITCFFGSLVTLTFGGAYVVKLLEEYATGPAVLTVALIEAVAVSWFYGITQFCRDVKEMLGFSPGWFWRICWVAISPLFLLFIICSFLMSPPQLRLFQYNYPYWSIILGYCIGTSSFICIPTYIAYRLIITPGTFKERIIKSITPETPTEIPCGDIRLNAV", "test": "Inhibition of human transporter in stable epithelial cell lines (5-HTT)", "format": "cell-based", "conditions": "average of two replicates (n=2)", "description": "(§1) Compounds were tested for their ability to inhibit the reuptake of the monoamine neurotransmitters dopamine (DA), noradrenaline (NA), and serotonin (5-HT) in synaptosomes as described in WO 97/16451 (NeuroSearch A/S). In addition, the compounds were tested in human epithelial cells expressing human transporters for 5-HT (SERT), dopamine (DAT), and norepinephrine (NET).\n(§2) The results are the average of two-replicates per experiment (n=2)."}, "[2]": {"test": "Phase I crossover study, intradermal capsaicin model: safety evaluation (TEAEs)", "format": "in vivo, human", "description": "In order to maintain the blind, a double dummy approach was used.\nSafety was assessed through AE reporting, 12-lead ECG, vital signs, physical examinations and clinical laboratory evaluations. Pharmacokinetics was assessed by blood sampling."}, "[3]": {"test": "Phase I ascending single oral dose study: safety and tolerability", "format": "in vivo, human", "description": "(§3) Study design. The study was a Phase I, randomised, double-blind, placebo-controlled, ascending single oral dose, safety, tolerability, pharmacokinetic (PK) and pharmacodynamics (PD) study of IP2015 in healthy male subjects.\n(§4) Each subject received one oral dose of IP2015 or matched placebo. […] The dose level was to be escalated to a maximum of 0.05 mg in Cohort 2 and a maximum of 0.2 mg in Cohort 3. The doses in the remaining five cohorts were to be determined based on the dose escalation criteria.\nThe randomisation schemes were generated by a statistician using SAS PROC Plan.\n(§5) The doses used in each cohort were as follows: • Cohort 1 - 0.01 mg • Cohort 2 - 0.05 mg • Cohort 3 - 0.2 mg • Cohort 4 - 0.6 mg • Cohort 5 - 1.8 mg • Cohort 6 - 5.4 mg • Cohort 7 - 16.2 mg • Cohort 8 - 10 mg\nEvaluation. The study evaluated the clinical safety data from adverse event (AE) reporting, 12-lead electrocardiogram (ECG), cardiac telemetry, vital signs (standing and supine blood pressure (BP), heart rate (HR), oral temperature and clinical laboratory evaluations (chemistry, haematology, urinalysis) and physical examinations in healthy male subjects."}, "[4]": {"target": "T2, norepinephrine transporter (NET) (Homo sapiens, UniProt P23975)", "T2 construct": "expressed in transfected cells", "T2 sequence (P23975 whole entry)": "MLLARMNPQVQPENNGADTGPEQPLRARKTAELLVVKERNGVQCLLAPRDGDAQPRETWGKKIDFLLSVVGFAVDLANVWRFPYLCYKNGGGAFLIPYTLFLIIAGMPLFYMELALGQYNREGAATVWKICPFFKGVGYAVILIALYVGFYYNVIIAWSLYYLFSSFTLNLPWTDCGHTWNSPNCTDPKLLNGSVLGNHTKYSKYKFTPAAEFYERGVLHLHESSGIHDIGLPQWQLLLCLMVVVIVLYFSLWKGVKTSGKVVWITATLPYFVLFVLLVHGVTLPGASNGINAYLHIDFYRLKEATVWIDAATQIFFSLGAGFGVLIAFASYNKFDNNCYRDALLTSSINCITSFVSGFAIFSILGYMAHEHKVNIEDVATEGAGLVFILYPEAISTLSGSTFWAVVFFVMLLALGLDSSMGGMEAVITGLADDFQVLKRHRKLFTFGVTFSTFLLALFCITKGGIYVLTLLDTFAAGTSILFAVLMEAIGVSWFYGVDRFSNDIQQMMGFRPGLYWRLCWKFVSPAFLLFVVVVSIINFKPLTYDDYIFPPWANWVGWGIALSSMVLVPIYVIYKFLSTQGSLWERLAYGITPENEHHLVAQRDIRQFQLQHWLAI", "test": "Inhibition of human transporter in stable epithelial cell lines (NET)", "format": "cell-based", "conditions": "average of two replicates (n=2)", "description": "as §1, §2"}, "[5]": {"target": "T3, dopamine transporter (DAT) (Homo sapiens, UniProt Q01959)", "T3 construct": "expressed in transfected cells", "T3 sequence (Q01959 whole entry)": "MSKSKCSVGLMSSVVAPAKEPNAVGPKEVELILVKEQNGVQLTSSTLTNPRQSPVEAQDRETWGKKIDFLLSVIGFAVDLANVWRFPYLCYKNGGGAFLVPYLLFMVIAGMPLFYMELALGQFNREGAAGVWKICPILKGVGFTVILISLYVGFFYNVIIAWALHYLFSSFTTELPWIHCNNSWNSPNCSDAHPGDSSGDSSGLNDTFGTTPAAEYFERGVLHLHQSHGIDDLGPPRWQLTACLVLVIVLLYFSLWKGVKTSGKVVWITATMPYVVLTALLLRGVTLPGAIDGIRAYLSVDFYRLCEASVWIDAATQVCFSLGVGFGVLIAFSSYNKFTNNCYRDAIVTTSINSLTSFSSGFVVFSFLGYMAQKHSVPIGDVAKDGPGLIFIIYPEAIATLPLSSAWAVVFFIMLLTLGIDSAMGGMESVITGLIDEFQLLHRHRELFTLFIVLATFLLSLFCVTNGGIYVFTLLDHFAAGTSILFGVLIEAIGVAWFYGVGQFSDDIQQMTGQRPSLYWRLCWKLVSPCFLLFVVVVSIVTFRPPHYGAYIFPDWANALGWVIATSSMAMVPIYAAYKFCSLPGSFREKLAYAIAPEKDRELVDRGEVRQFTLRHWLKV", "test": "Inhibition of human transporter in stable epithelial cell lines (DAT)", "format": "cell-based", "conditions": "average of two replicates (n=2)", "description": "as §1, §2"}, "[6]": {"test": "Phase I ascending single oral dose study: pharmacokinetics", "format": "in vivo, human", "conditions": "for Tmax / half-life: human, in vivo, po; for Tmax: single oral dose, postdose", "description": "as §3, §4\nSubjects were required to attend the clinical research unit (CRU) for a screening visit within 28 days prior to dosing. […] All subjects remained in the CRU until Day 3 (48 hours postdose) for the collection of safety assessments, PK blood and urine samples, and CNS assessments.\nStudy Drug, Dose and Mode of Administration. IP2015 and matched placebo were provided as a powder in bottles for oral solution. […] Reconstitution was performed by a pharmacist at the clinical site prior to dosing.\nThe dose was taken with 240 mL of water at room temperature. Subjects/participants were fasted overnight prior to dosing until 4 hours postdose. Water was allowed ad libitum except for 1 hour before and 1 hour after dosing.\nas §5\nThe study also evaluated plasma PK concentrations and parameters including but not limited to: area under the plasma concentration vs time curve (AUC), from time zero to the last quantifiable concentration (AUC0-t), AUC from zero to infinity (AUC0-∞), observed maximum plasma concentration (Cmax), time to reach maximum plasma concentration (tmax) and terminal elimination half-life (T1/2) in healthy male subjects.\nStatistical methods. Safety parameters were listed and summarised using descriptive statistics. Pharmacokinetic parameter estimates were calculated using noncompartmental methods. Pharmacokinetic data were listed for each subject/patient and summarised by descriptive statistics.\nDose proportionality was analysed for Part A with a linear regression model using the logarithm of a PK parameter as responsible variable and the logarithm of the dose as the independent variable. The linear regression model can be expressed as: Log(yi) = α + β*log dosei + εi [formula] where α is the intercept, dosei is the actual dose of IP2015 for the ith subject and εi is the (within subject) random error in observing yi.\nThe above model was applied to the following PK parameters; AUC0-t, AUC0-∞ and Cmax. Based on the linear regression model, the dose proportionality coefficient (slope) and its two-sided 90% confidence interval (CI) were estimated. Dose proportionality was declared if the 90% CI for the slope was completely contained in the following range16: 1+log(0.5)/log(r), 1+log(2)/log(r), where r is the high dose/low dose."}}, "note": "“Also recorded” adds a separate entry of the source. Where two headings read alike, the source gives them in different places.", "data": [{"smiles": "COc1cc2ccc(O[C@@H]3C[C@H]4CC[C@@H](C3)N4)cc2oc1=O", "note": "[IP2015, exo-7-[(8-azabicyclo[3.2.1]octan-3-yl)oxy]-3-methoxy-chromen-2-one]", "values": [{"measurement": "Dopamine (DA) elevation in cortex", "setting": "Dopamine (DA)", "value": "increased; also recorded: most pronounced"}, {"measurement": "Dopamine (DA) elevation in striatum", "setting": "Dopamine (DA)", "value": "less and only some elevation"}, {"measurement": "IC50", "setting": "[1]", "value": 0.297, "unit": "nM"}, {"measurement": "severity of all TEAEs", "setting": "[2]; 5 mg IP2015 and 10 mg IP2015", "value": "mild"}, {"measurement": "incidence of TEAEs (share of subjects)", "setting": "[2]; 5 mg IP2015 single oral dose", "value": 29.2, "unit": "%"}, {"measurement": "number of TEAEs reported", "setting": "[2]; 5 mg IP2015 single oral dose", "value": 10, "unit": "events"}, {"measurement": "subjects reporting TEAEs", "setting": "[2]; 5 mg IP2015 single oral dose", "value": 7, "unit": "subjects"}, {"measurement": "incidence of TEAEs (share of subjects)", "setting": "[2]; 10 mg IP2015 single oral dose", "value": 54.2, "unit": "%"}, {"measurement": "number of TEAEs reported", "setting": "[2]; 10 mg IP2015 single oral dose", "value": 19, "unit": "events"}, {"measurement": "subjects reporting TEAEs", "setting": "[2]; 10 mg IP2015 single oral dose", "value": 13, "unit": "subjects"}, {"measurement": "incidence of TEAEs", "setting": "[3]; 0.01 mg to 10 mg dose range", "value": "relatively low"}, {"measurement": "mean ECG parameters", "setting": "[3]; 0.01 mg to 10 mg dose range", "value": "no significant treatment- or dose-related trends"}, {"measurement": "vital sign values, mean or individual subject", "setting": "[3]; 0.01 mg to 10 mg dose range", "value": "no significant treatment- or dose-related trends"}, {"measurement": "incidence of side effects compared to the 0.01 mg to 10 mg dose range", "setting": "[3]; 16.2 mg", "value": "increased"}, {"measurement": "subjects with sustained tachycardia for several hours", "setting": "[3]; 16.2 mg", "value": 2, "unit": "subjects"}, {"measurement": "subjects reporting at least one TEAE", "setting": "[3]; 16.2 mg dose group (all subjects of the group)", "value": 4, "unit": "subjects"}, {"measurement": "standing pulse rate", "setting": "[3]; 16.2 mg, 2, 3, 4, 6, 8, 10 and 12 hours postdose", "value": "increases from baseline"}, {"measurement": "supine pulse rate", "setting": "[3]; 16.2 mg, 6, 8 and 10 hours postdose", "value": "increases from baseline"}, {"measurement": "heart rate (ECG)", "setting": "[3]; 16.2 mg, 8 and 12 hours postdose", "value": "increases from baseline"}, {"measurement": "subjects experiencing TEAEs", "setting": "[3]; of the 40 subjects who received IP2015, all dose groups", "value": 16, "unit": "subjects"}, {"measurement": "total TEAEs", "setting": "[3]; the 40 subjects who received IP2015, all dose groups", "value": 32, "unit": "TEAEs"}, {"measurement": "IC50", "setting": "[4]", "value": 95, "unit": "nM"}, {"measurement": "IC50", "setting": "[5]", "value": 1.44, "unit": "nM"}, {"measurement": "Plasma concentrations of IP2015", "setting": "[6]; 0.01 mg and 0.05 mg single oral dose, all subjects", "value": "below the LLOQ"}, {"measurement": "subjects with plasma concentrations below the LLOQ", "setting": "[6]; 0.2 mg single oral dose", "value": "3/7"}, {"measurement": "Tmax", "setting": "[6]; read-out: tmax (range across all dose levels)", "value": "1 to 6", "unit": "h"}, {"measurement": "Tmax", "setting": "[6]; range of medians across doses, read-out: Median tmax", "value": "2.25 to 5", "unit": "h"}, {"measurement": "half-life", "setting": "[6]; 0.6 mg, calculated for 1/6 subjects, read-out: mean t½ (converted)", "value": 14.5, "unit": "h"}, {"measurement": "half-life", "setting": "[6]; 1.8 mg, calculated for 3/6 subjects, read-out: mean t½ (converted)", "value": 16.1, "unit": "h"}, {"measurement": "half-life", "setting": "[6]; 5.4 mg to 16.2 mg doses, range of means, read-out: mean T½", "value": "23.1 to 26.3", "unit": "h"}]}]}
